# Test results: patent publication US6787525B1, “Glyceryl nucleotides, method for the production thereof and their use” (priority 1998, dated 2004)
# What was measured:
# [1] = tested on: HS 578T; assay: In vitro cytostatic effect (SRB): HS 578T, Breast cancer
# [2] = tested on: SF-539; assay: In vitro cytostatic effect (SRB): SF-539, Cancer of the central nervous system
# [3] = tested on: LOX IMVI; assay: In vitro cytostatic effect (SRB): LOX IMVI, Melanoma
# [4] = tested on: MDA-MB-435; assay: In vitro cytostatic effect (SRB): MDA-MB-435, Breast cancer
# [5] = tested on: HCT-116; assay: In vitro cytostatic effect (SRB): HCT-116, Intestinal cancer
# [6] = tested on: A549/ATCC; assay: In vitro cytostatic effect (SRB): A549/ATCC, Lung cancer
# [7] = tested on: HCT-15; assay: In vitro cytostatic effect (SRB): HCT-15, Intestinal cancer; conditions: 48-hour incubation
# [8] = tested on: HOP-62; assay: In vitro cytostatic effect (SRB): HOP-62, Lung cancer
# [9] = tested on: U251; assay: In vitro cytostatic effect (SRB): U251, Cancer of the central nervous system
# [10] = tested on: HT29; assay: In vitro cytostatic effect (SRB): HT29, Intestinal cancer
# [11] = tested on: IGROV1; assay: In vitro cytostatic effect (SRB): IGROV1, Ovarian cancer
# [12] = tested on: NCI/ADR-RES; assay: In vitro cytostatic effect (SRB): NCI/ADR-RES, Breast cancer
# [13] = tested on: RXF 393; assay: In vitro cytostatic effect (SRB): RXF 393, Kidney cancer
# [14] = tested on: HL-60(TB)
# [15] = tested on: MOLT-4; assay: In vitro cytostatic effect (SRB): MOLT-4, Leukemia
# [16] = tested on: TK-10; assay: In vitro cytostatic effect (SRB): TK-10, Kidney cancer
# [17] = tested on: CAKI-1; assay: In vitro cytostatic effect (SRB): CAKI-1, Kidney cancer
# [18] = tested on: COLO205; assay: In vitro cytostatic effect (SRB): COLO205, Intestinal cancer
# [19] = tested on: NCI-H23; assay: In vitro cytostatic effect (SRB): NCI-H23, Lung cancer
# [20] = tested on: OVCAR-4; assay: In vitro cytostatic effect (SRB): OVCAR-4, Ovarian cancer
# [21] = tested on: ACHN; assay: In vitro cytostatic effect (SRB): ACHN, Kidney cancer
# [22] = tested on: OVCAR-8; assay: In vitro cytostatic effect (SRB): OVCAR-8, Ovarian cancer
# [23] = tested on: SW-620; assay: In vitro cytostatic effect (SRB): SW-620, Intestinal cancer
# [24] = tested on: SF-268; assay: In vitro cytostatic effect (SRB): SF-268, Cancer of the central nervous system
# [25] = tested on: RPMI-8226; assay: In vitro cytostatic effect (SRB): RPMI-8226, Leukemia
# [26] = tested on: SK-MEL-28; assay: In vitro cytostatic effect (SRB): SK-MEL-28, Melanoma
# [27] = read-out: LC50, 48-hour incubation
compound,measurement,setting,value
"Nc1ccn(C2CCC(COP(=O)(O)OCC(O)COP(=O)(O)OCC3OC(n4cc(F)c(=O)[nH]c4=O)CC3O)O2)c(=O)n1 (racemic) [NSC 704533, 2′,3′-didesoxycytidylyl-(5′→1)-racglycerylyl-(3→5′)-5-fluoro-2′-desoxyuridine]",GI50,[1]; 48-hour incubation,732 nM
same,TGI,[1]; 48-hour incubation,>1.00E − 04 mol/l
same,CC50,[1]; [27],> 100 µM
same,GI50,[2]; 48-hour incubation,21.6 nM
same,TGI,[2]; 48-hour incubation,>1.00E − 04 mol/l
same,CC50,[2]; [27],> 100 µM
same,GI50,[3]; 48-hour incubation,10.1 nM
same,TGI,[3]; 48-hour incubation,>1.00E − 04 mol/l
same,CC50,[3]; [27],> 100 µM
same,GI50,[4]; 48-hour incubation,4.76 µM
same,TGI,[4]; 48-hour incubation,>1.00E − 04 mol/l
same,CC50,[4]; [27],> 100 µM
same,GI50,[5]; 48-hour incubation,374 nM
same,TGI,[5]; 48-hour incubation,>1.00E − 04 mol/l
same,CC50,[5]; [27],> 100 µM
same,GI50,[6]; 48-hour incubation,47.7 nM
same,TGI,[6]; 48-hour incubation,>1.00E − 04 mol/l
same,CC50,[6]; [27],> 100 µM
same,GI50,[7],17.9 µM
same,TGI,[7],>1.00E − 04 mol/l
same,GI50,[8]; 48-hour incubation,902 nM
same,TGI,[8]; 48-hour incubation,>1.00E − 04 mol/l
same,CC50,[8]; [27],> 100 µM
same,GI50,[9]; 48-hour incubation,1260 nM
same,TGI,[9]; 48-hour incubation,>1.00E − 04 mol/l
same,CC50,[9]; [27],> 100 µM
same,GI50,[10]; 48-hour incubation,1880 nM
same,TGI,[10]; 48-hour incubation,>1.00E − 04 mol/l
same,CC50,[10]; [27],> 100 µM
same,GI50,[11]; 48-hour incubation,68 µM
same,TGI,[11]; 48-hour incubation,>1.00E − 04 mol/l
same,CC50,[11]; [27],> 100 µM
same,GI50,[12]; 48-hour incubation,695 nM
same,TGI,[12]; 48-hour incubation,>1.00E − 04 mol/l
same,CC50,[12]; [27],> 100 µM
same,GI50,[13]; 48-hour incubation,5.12 µM
same,TGI,[13]; 48-hour incubation,>1.00E − 04 mol/l
same,CC50,[13]; [27],> 100 µM
same,GI50,"[14]; Leukemia, 48-hour incubation",71.5 nM
same,TGI,"[14]; Leukemia, 48-hour incubation",>1.00E − 04 mol/l
same,CC50,"[14]; read-out: LC50, Leukemia, 48-hour incubation",> 100 µM
same,GI50,[15]; 48-hour incubation,104 nM
same,TGI,[15]; 48-hour incubation,>1.00E − 04 mol/l
same,CC50,[15]; [27],> 100 µM
same,GI50,[16]; 48-hour incubation,6.25 µM
same,TGI,[16]; 48-hour incubation,>1.00E − 04 mol/l
same,CC50,[16]; [27],> 100 µM
same,GI50,[17]; 48-hour incubation,1440 nM
same,TGI,[17]; 48-hour incubation,>1.00E − 04 mol/l
same,CC50,[17]; [27],> 100 µM
same,GI50,[18]; 48-hour incubation,17.7 µM
same,TGI,[18]; 48-hour incubation,>1.00E − 04 mol/l
same,CC50,[18]; [27],> 100 µM
same,GI50,[19]; 48-hour incubation,97.9 nM
same,TGI,[19]; 48-hour incubation,>1.00E − 04 mol/l
same,CC50,[19]; [27],> 100 µM
same,GI50,[20]; 48-hour incubation,> 100 µM
same,TGI,[20]; 48-hour incubation,>1.00E − 04 mol/l
same,CC50,[20]; [27],> 100 µM
same,GI50,[21]; 48-hour incubation,< 10 nM
same,TGI,[21]; 48-hour incubation,>1.00E − 04 mol/l
same,CC50,[21]; [27],> 100 µM
same,GI50,[22]; 48-hour incubation,141 nM
same,TGI,[22]; 48-hour incubation,>1.00E − 04 mol/l
same,CC50,[22]; [27],> 100 µM
same,GI50,[23]; 48-hour incubation,> 100 µM
same,TGI,[23]; 48-hour incubation,>1.00E − 04 mol/l
same,CC50,[23]; [27],> 100 µM
same,GI50,[24]; 48-hour incubation,< 10 nM
same,TGI,[24]; 48-hour incubation,>1.00E − 04 mol/l
same,CC50,[24]; [27],> 100 µM
same,GI50,[25]; 48-hour incubation,11 µM
same,TGI,[25]; 48-hour incubation,>1.00E − 04 mol/l
same,CC50,[25]; [27],> 100 µM
same,GI50,[26]; 48-hour incubation,37.9 µM
same,TGI,[26]; 48-hour incubation,>1.00E − 04 mol/l
same,CC50,[26]; [27],> 100 µM
